In US12077503B2, “Substituted cyclic amides and their use as herbicides” (FMC CORPORATION, priority 2015, dated 2024):

What was measured:
Format in all cases: in vivo
[1] = tested on: Kochia (Kochia scoparia); assay: Test A preemergence; conditions: for Plant response rating, Kochia: 125 g ai/ha, preemergence, 0 to 100 scale (0 no effect, 100 complete control); for Kochia plant response rating (0 to 100 scale, 0 is no effect, 100 is complete control): Preemergence, 500 g ai/ha, visual injury approx. 10 d
Summary of the method: (§1)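 Visual injury, scored on a 0–100 scale relative to untreated controls, was recorded about 10 d after application. Treatments were a preemergence soil spray over planted seeds or a postemergence spray on plants at the one- to two-leaf stage, 2 to 10 cm tall, all in loam soil–sand blend in the greenhouse.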

[2] = tested on: barnyardgrass (Echinochloa crus-galli); assay: Test A preemergence; conditions: for Plant response rating, Barnyardgrass: 125 g ai/ha, preemergence, 0 to 100 scale (0 no effect, 100 complete control); for Barnyardgrass plant response rating (0 to 100 scale, 0 is no effect, 100 is complete control): Preemergence, 500 g ai/ha, visual injury approx. 10 d
Summary of the method: as §1

[3] = tested on: giant foxtail (Setaria faberii); assay: Test A preemergence; conditions: for Plant response rating, Foxtail, Giant: 125 g ai/ha, preemergence, 0 to 100 scale (0 no effect, 100 complete control); for Foxtail, Giant plant response rating (0 to 100 scale, 0 is no effect, 100 is complete control): Preemergence, 500 g ai/ha, visual injury approx. 10 d
Summary of the method: as §1

[4] = tested on: pigweed (Amaranthus retroflexus); assay: Test A preemergence; conditions: Preemergence; for Plant response rating, Pigweed: 125 g ai/ha, visual injury after approximately 10 d, 0 to 100 scale where 0 is no effect and 100 is complete control; for Pigweed plant response rating (0 to 100 scale, 0 is no effect, 100 is complete control): 500 g ai/ha, visual injury approx. 10 d
[5] = tested on: ragweed (common ragweed, Ambrosia elatior); assay: Test A preemergence; conditions: Preemergence; for Plant response rating, Ragweed: 125 g ai/ha, visual injury after approximately 10 d, 0 to 100 scale where 0 is no effect and 100 is complete control; for Ragweed plant response rating (0 to 100 scale, 0 is no effect, 100 is complete control): 500 g ai/ha, visual injury approx. 10 d
Summary of the method: as §1

[6] = tested on: ryegrass, Italian (Italian ryegrass, Lolium multiflorum); assay: Test A preemergence; conditions: Preemergence; for Plant response rating, Ryegrass, Italian: 125 g ai/ha, visual injury after approximately 10 d, 0 to 100 scale where 0 is no effect and 100 is complete control; for Ryegrass, Italian plant response rating (0 to 100 scale, 0 is no effect, 100 is complete control): 500 g ai/ha, visual injury approx. 10 d
Summary of the method: as §1

[7] = tested on: Galium (catchweed bedstraw, Galium aparine); assay: Test A postemergence; conditions: for Galium plant response rating: 125 g ai/ha, postemergence, visual injury rating on 0 to 100 scale (0 no effect, 100 complete control), approx. 10 d; for Plant response rating, Galium: Postemergence, 500 g ai/ha, 0 to 100 scale where 0 is no effect and 100 is complete control
Summary of the method: as §1

[8] = tested on: Kochia (Kochia scoparia); assay: Test A postemergence; conditions: for Kochia plant response rating: 125 g ai/ha, postemergence, visual injury rating on 0 to 100 scale (0 no effect, 100 complete control), approx. 10 d; for Plant response rating, Kochia: Postemergence, 500 g ai/ha, 0 to 100 scale where 0 is no effect and 100 is complete control
Summary of the method: as §1

[9] = tested on: barnyardgrass (Echinochloa crus-galli); assay: Test A postemergence; conditions: postemergence; for Barnyardgrass plant response rating: 125 g ai/ha, visual injury rating on 0 to 100 scale (0 no effect, 100 complete control), approx. 10 d; for Plant response rating, Barnyardgrass: 500 g ai/ha, 0 to 100 scale, 0 no effect, 100 complete control
Summary of the method: as §1

[10] = tested on: blackgrass (Alopecurus myosuroides); assay: Test A postemergence; conditions: postemergence; for Blackgrass plant response rating: 125 g ai/ha, visual injury rating on 0 to 100 scale (0 no effect, 100 complete control), approx. 10 d; for Plant response rating, Blackgrass: 500 g ai/ha, 0 to 100 scale, 0 no effect, 100 complete control
Summary of the method: as §1

[11] = tested on: corn (Zea mays); assay: Test A postemergence; conditions: postemergence; for Corn plant response rating: 125 g ai/ha, visual injury rating on 0 to 100 scale (0 no effect, 100 complete control), approx. 10 d; for Plant response rating, Corn: 500 g ai/ha, 0 to 100 scale, 0 no effect, 100 complete control
Summary of the method: as §1

[12] = tested on: giant foxtail (Setaria faberii); assay: Test A postemergence; conditions: for Foxtail, Giant plant response rating: 125 g ai/ha, postemergence, visual injury rating on 0 to 100 scale (0 no effect, 100 complete control), approx. 10 d; for Plant response rating, Foxtail, Giant: Postemergence, 500 g ai/ha, 0 to 100 scale where 0 is no effect and 100 is complete control
Summary of the method: as §1

[13] = tested on: pigweed (Amaranthus retroflexus); assay: Test A postemergence; conditions: for Pigweed plant response rating: 125 g ai/ha, postemergence, visual injury rating on 0 to 100 scale (0 no effect, 100 complete control), approx. 10 d; for Plant response rating, Pigweed: Postemergence, 500 g ai/ha, 0 to 100 scale where 0 is no effect and 100 is complete control
Summary of the method: as §1

[14] = tested on: ragweed (common ragweed, Ambrosia elatior); assay: Test A postemergence; conditions: for Ragweed plant response rating: 125 g ai/ha, postemergence, visual injury rating on 0 to 100 scale (0 no effect, 100 complete control), approx. 10 d; for Plant response rating, Ragweed: Postemergence, 500 g ai/ha, 0 to 100 scale where 0 is no effect and 100 is complete control
Summary of the method: as §1

[15] = tested on: ryegrass, Italian (Italian ryegrass, Lolium multiflorum); assay: Test A postemergence; conditions: for Ryegrass, Italian plant response rating: 125 g ai/ha, postemergence, visual injury rating on 0 to 100 scale (0 no effect, 100 complete control), approx. 10 d; for Plant response rating, Ryegrass, Italian: Postemergence, 500 g ai/ha, 0 to 100 scale where 0 is no effect and 100 is complete control
Summary of the method: as §1

[16] = tested on: wheat (Triticum aestivum); assay: Test A postemergence; conditions: for Wheat plant response rating: 125 g ai/ha, postemergence, visual injury rating on 0 to 100 scale (0 no effect, 100 complete control), approx. 10 d; for Plant response rating, Wheat: Postemergence, 500 g ai/ha, 0 to 100 scale where 0 is no effect and 100 is complete control
Summary of the method: as §1

[17] = tested on: barnyardgrass (Echinochloa crus-galli); assay: Test B flooded paddy test; conditions: Flood, 250 g ai/ha; 0 to 100 scale where 0 is no effect and 100 is complete control; 13 to 15 d
Summary of the method: (§2)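 Visual ratings (0 none to 100 complete control) are relative to untreated plants, taken 13–15 d after treatment in a greenhouse. Test material went straight into floodwater standing 3 cm above the soil, kept constant, on plants at the 2-leaf stage.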

[18] = tested on: ducksalad (Heteranthera limosa); assay: Test B flooded paddy test; conditions: Flood, 250 g ai/ha; 0 to 100 scale where 0 is no effect and 100 is complete control; 13 to 15 d
Summary of the method: as §2

[19] = tested on: rice (Oryra sativa); assay: Test B flooded paddy test; conditions: Flood, 250 g ai/ha; 0 to 100 scale where 0 is no effect and 100 is complete control; 13 to 15 d
Summary of the method: as §2

[20] = tested on: sedge, umbrella (small-flower umbrella sedge, Cyperus difformis); assay: Test B flooded paddy test; conditions: Flood, 250 g ai/ha; 0 to 100 scale where 0 is no effect and 100 is complete control; 13 to 15 d
Summary of the method: as §2

Row | SMILES | Plant response rating, Kochia [1] | Kochia plant response rating (0 to 100 scale, 0 is no effect, 100 is complete control) [1] | Plant response rating, Barnyardgrass [2] | Barnyardgrass plant response rating (0 to 100 scale, 0 is no effect, 100 is complete control) [2] | Plant response rating, Foxtail, Giant [3] | Foxtail, Giant plant response rating (0 to 100 scale, 0 is no effect, 100 is complete control) [3] | Plant response rating, Pigweed [4] | Pigweed plant response rating (0 to 100 scale, 0 is no effect, 100 is complete control) [4] | Plant response rating, Ragweed [5] | Ragweed plant response rating (0 to 100 scale, 0 is no effect, 100 is complete control) [5] | Plant response rating, Ryegrass, Italian [6] | Ryegrass, Italian plant response rating (0 to 100 scale, 0 is no effect, 100 is complete control) [6] | Galium plant response rating [7] | Plant response rating, Galium [7] | Kochia plant response rating [8] | Plant response rating, Kochia [8] | Barnyardgrass plant response rating [9] | Plant response rating, Barnyardgrass [9] | Blackgrass plant response rating [10] | Plant response rating, Blackgrass [10] | also measured
1 | CN1CC(c2ccc(C(F)(F)F)cc2F)C(C(=O)Nc2ccc(F)cc2F)C1=O (stereo not drawn) [Compound 474] | 60 | 70 | 90 | 90 | 90 | 90 | 30 | 90 | 0 | 20 | 0 | 50 | 40 | 50 | 50 | 60 | 90 | 90 | 30 | 50 | Corn plant response rating [11]: 0; Plant response rating, Corn [11]: 20; Foxtail, Giant plant response rating [12]: 90; Plant response rating, Foxtail, Giant [12]: 90; Pigweed plant response rating [13]: 30; Plant response rating, Pigweed [13]: 30; Ragweed plant response rating [14]: 0; Plant response rating, Ragweed [14]: 0; Ryegrass, Italian plant response rating [15]: 20; Plant response rating, Ryegrass, Italian [15]: 50; Wheat plant response rating [16]: 0; Plant response rating, Wheat [16]: 30; Plant response rating, Barnyardgrass [17]: 30; Plant response rating, Ducksalad [18]: 80; Plant response rating, Rice [19]: 0; Plant response rating, Sedge, Umbrella [20]: 0
2 | O=C1NCC(c2ccc(C(F)(F)F)cc2F)C1C(=O)Nc1cccc(F)c1F (stereo not drawn) [Compound 475] | 70 | 70 | 90 | 90 | 90 | 90 | 60 | 90 | 50 | 60 | 20 | 40 | 50 | 60 | 40 | 60 | 90 | 90 | 30 | 40 | Corn plant response rating [11]: 0; Plant response rating, Corn [11]: 60; Foxtail, Giant plant response rating [12]: 90; Plant response rating, Foxtail, Giant [12]: 90; Pigweed plant response rating [13]: 50; Plant response rating, Pigweed [13]: 70; Ragweed plant response rating [14]: 20; Plant response rating, Ragweed [14]: 30; Ryegrass, Italian plant response rating [15]: 20; Plant response rating, Ryegrass, Italian [15]: 30; Wheat plant response rating [16]: 0; Plant response rating, Wheat [16]: 30; Plant response rating, Barnyardgrass [17]: 20; Plant response rating, Ducksalad [18]: 100; Plant response rating, Rice [19]: 15; Plant response rating, Sedge, Umbrella [20]: 0
3 | C=C(Cl)CN1CC(c2cccc(C(F)(F)F)c2)C(C(=O)Nc2cccc(F)c2F)C1=O (stereo not drawn) [Compound 480] | 0 | 0 | 0 | 0 | 70 | 90 | 0 | 0 | 0 | 0 | 0 | 0 | 0 | 0 | 0 | 0 | 0 | 30 | 0 | 0 | Corn plant response rating [11]: 0; Plant response rating, Corn [11]: 0; Foxtail, Giant plant response rating [12]: 20; Plant response rating, Foxtail, Giant [12]: 50; Pigweed plant response rating [13]: 0; Plant response rating, Pigweed [13]: 0; Ragweed plant response rating [14]: 0; Plant response rating, Ragweed [14]: 0; Ryegrass, Italian plant response rating [15]: 0; Plant response rating, Ryegrass, Italian [15]: 0; Wheat plant response rating [16]: 0; Plant response rating, Wheat [16]: 30; Plant response rating, Barnyardgrass [17]: 0; Plant response rating, Ducksalad [18]: 0; Plant response rating, Rice [19]: 0; Plant response rating, Sedge, Umbrella [20]: 0
